{"source": "patent US10842814B2", "about": "“Use of low dose arsenic for preserving genomic integrity” (Board of Regents of the University of Texas System, priority 2016, dated 2020)", "key": {"[1]": {"test": "Clinical trial: toxicity and blood counts during myelosuppressive chemotherapy", "format": "in vivo, human", "description": "Additionally, data from a clinical trial supports a beneficial effect of LDA in patients. The trial had two objectives: 1) to define the lowest safe dose of arsenic trioxide that blocks p53 activation in patients and 2) to assess the potential of LDA in decreasing hematological toxicity from myelosuppressive chemotherapy. Patients scheduled for treatment with at least 4 cycles of myelosuppressive chemotherapy with a minimum of 2 weeks between the cycles were eligible.\nThe p53 expression level in patients' peripheral lymphocytes was measured as a surrogate marker for p53 activity for the patients. […] For the second stage of the study (second objective), patients were treated with chemotherapy without any LDA pretreatment before cycles 1, 3 and 5. They were treated with intravenous LDA of 0.005 mg/kg for 3 days prior to cycles 2, 4 and 6. […] Because the competing and compounding effects of multi-drug chemotherapy on p53 were felt to affect the p53 activity even in the presence of LDA pretreatment, we decided to focus on p53 activity obtained just prior to chemotherapy administration (on day 1). If the p53 activity level for the subsequent cycle (e.g., cycle 2 for cycle 1, cycle 4 for cycle 3 etc.) was lower than the baseline cycle, p53 was defined as “suppressed” for the pair of cycles. […]"}, "[2]": {"tested_on": "human adult foreskin keratinocytes", "conditions": "cited from earlier work"}, "[3]": {"target": "T1, telomerase (Homo sapiens, UniProt O14746)", "T1 construct": "Extracted protein (500 ng) was used to assess telomerase activity by TRAP; endogenous in cells; host or cells: HEK 293T cells", "test": "Telomerase activity by TRAP assay", "format": "cell-based", "conditions": "HEK 293T, LDA 0 nM to 500 nM for 24 hrs, 12 Gy IR, further 48 hrs", "protocol": "FIG. 7. HEK cells were stimulated with ConA, 10 μg/ml. After 24 hrs, LDA was introduced (range from 0 nM to 500 nM) and again incubated 24 hrs. 12 Gy of IR was delivered, cells were incubated an additional 48 hrs and harvested. Extracted protein (500 ng) was used to assess telomerase activity by TRAP, compared with a telomerase positive control and no-Arsenic, no-IR control. HI: heat inactivated.\nHowever, we will test this observation in T lymphocytes, which are known to dynamically regulate telomerase expression. This will better recapitulate the effect of LDA within the hematopoietic compartment."}, "[4]": {"test": "Observation of arsenic-induced malignancy in animal model", "format": "in vivo", "description": "Arsenic has different biological effects in vitro and induces expression of different sets of genes depending on the dose. Our approach with LDA aims to mitigate certain known adverse biological effects. For example, arsenic trioxide is a cytotoxic agent used to treat acute promyelocytic leukemia (APL). However, the dose of arsenic trioxide used for our strategy is much lower than the dose used to treat APL. Arsenic is also a known carcinogen."}, "[5]": {"tested_on": "mouse embryonic stem (ES) cells (WT, msh2−/−, p53−/−)", "test": "Survival fraction of ES cells exposed to γ radiation and LDA", "format": "cell-based", "protocol": "FIG. 6. Dose response to γ radiation and sodium (Na) arsenite. (A, B) Survival fraction curves to determine the working doses. The wild type (WT) cells (black, green) are the parental cells for the msh2 and p53 mutations, respectively. (C, D) Survival fraction curves with msh2−/− and p53−/− cells exposed to γ radiation and LDA (100 nM Na arsenite). Error bars are shown for the average of 3 independent experiments.\nTo discover LDA essential genes, cell survival and DNA damage/mutation assays will be performed. First we will establish working doses for all control and mutant cells in Table 1 since they will vary depending on the mutation. As a pilot we started with ES cells mutated for Msh2 and p53 since mutations in both are implicated in the development and progression of secondary MDS/AML.\nMsh2 is a member of mismatch repair (MMR) important for postreplication repair and homologous recombination regulation while p53 is essential for responses to a variety of stresses including DNA damage and ribosomal stress. Based on the dose response curve (FIGS. 6A, B), cells will be exposed to 100 nM sodium arsenite 24 hours before exposure to 3-6 Gy. […] Since the differences for the […] cells and their control cells are small, we will repeat the experiment with different Na arsenite doses. […]"}, "[6]": {"tested_on": "bone marrow cells", "test": "Bone marrow protection against Y-90 ibritumomab tiuxetan-induced damage (H&E, γ-H2AX, TUNEL staining)", "format": "in vivo, BALB/c mice", "protocol": "At the indicated time points, mice were sacrificed by cervical […] and bone marrows were harvested for staining. (A) Quantification of γ-H2AX positive cells.\nLDA pretreatment was administered through drinking water containing 1 mg/L arsenic trioxide for three days. […] Tissue samples were collected at different time points (3 hours to 5 weeks) after treatment.\nBone marrow damage was analyzed histologically with hematoxylin and eosin (H&E) staining, DNA DSBs were assessed by γ-H2AX staining and apoptosis was detected by terminal deoxynucleotidyl transferase dUTP nick end labeling (TUNEL) staining."}, "[7]": {"tested_on": "untransformed cells", "test": "Pretreatment of untransformed cells with LDA: p53, NF-kB, glycolysis", "format": "cell-based", "conditions": "in vitro and in vivo studies", "description": "Activation of p53 is one of the major pathways by which DNA damaging agents such as radiation therapy and chemotherapy cause toxicity in normal tissues and it induces a cascade of events that eventually leads to cell senescence or death. […] This metabolic shift provides cells with effective protection against cytotoxic radiation or chemotherapy, coupling the metabolic pathway to cellular resistance. […] This protective effect is selective to normal tissues, as it requires functional p53. Though not every cancer cell has detectable p53 mutation, essentially every cancer cell has dysfunctional p53. Therefore, cancer cells will not be protected by this strategy.\nActivation of p53 is one of major pathways by which DNA damaging agents such as IR and chemotherapy cause toxicity in normal tissues, inducing a cascade of events that eventually leads to cell senescence or cell death. […] This metabolic shift provides cells with effective protection against cytotoxic IR or chemotherapy, coupling the metabolic pathway to cellular resistance. […] Importantly, this protective effect is selective to normal tissues, as it requires functional p53. Though not every cancer cell has a detectable p53 mutation, essentially every cancer cell has dysfunctional p53. Therefore, cancer cells will not be protected by this strategy."}, "[8]": {"tested_on": "Karpas 422", "test": "Mouse xenograft model with CD20 expressing lymphoma cell line, tumor volume", "format": "in vivo", "protocol": "Treatments were initiated 1 week after implantation when tumors became palpable. Tumor volumes were measured periodically with calipers. Tumor volume was calculated using the equation: volume=length×width×depth×0.5236 […]. Two independent experiments were done and the tumor volumes were expressed as means±SE."}, "[9]": {"tested_on": "peripheral T-lymphocytes", "test": "Telomere length of ConA-stimulated peripheral blood T-lymphocytes after radiation or chemotherapy", "format": "cell-based, human", "conditions": "100 nM arsenic trioxide for 24 hours, then 12 Gy X-ray, harvested 48 hours later", "protocol": "FIG. 2. T-lymphocytes isolated from healthy donors' peripheral blood were incubated with 10 μg/ml of Concanavalin A overnight. The cells were treated with either solvent or 100 nM arsenic (As) trioxide for 24 hours, followed by 12 Gy of X-ray treatment. Forty-eight hours later, the cells were harvested for telomere length measurement. The results represent four independent experiments. Paired student's t-test was used to calculate the p values.\nFIG. 3. (A) Live cell percentage and (B) relative telomere length of T-lymphocytes in response to a serial dilution of etoposide. (C) Live cell percentage and (D) relative telomere length of T-lymphocytes treated with solvent or 160 μM etoposide in the presence or absence of LDA pretreatment.\nFIG. 4. (A) Live cell percentage and (B) relative telomere length of T-lymphocytes in response to a serial dilution of doxorubicin. (C) Live cell percentage and (D) relative telomere length of T-lymphocytes treated with solvent or 1.6 μM doxorubicin in the presence or absence of LDA pretreatment.\nAs one of the first steps to explore the role of LDA in protecting the bone marrow from DNA DSBs as observed in FIG. 1 above, we studied the effect of LDA on telomere length in the setting of IR. We observed the expected shortening of telomere length in the peripheral T-lymphocytes (obtained from donors' peripheral blood and proliferated with ConA) after IR."}, "[10]": {"tested_on": "T-cell leukemic cell line (Loucy)", "test": "Relative telomere length of T-cell leukemic cell line after 12 Gy radiation", "format": "cell-based", "conditions": "presence or absence of LDA", "description": "FIG. 5. Relative telomere length of T-cell leukemic cell line (Loucy) after 12 Gy of radiation in the presence or absence of LDA treatment."}, "[11]": {"tested_on": "mouse embryonic stem cells expressing RAD51^K133A", "test": "Loss of heterozygosity (LOH) assay, miniHPRT deletion, 6-TG resistance", "format": "cell-based", "description": "FIG. 8. […] NT; no arsenite treatment, WT; wild type embryonic stem cells, KA; mutant embryonic stem cells expressing RAD51^K133A\nWe performed a loss of heterozygosity (LOH) assay to detect mutations in the HPRT gene [resistance to 6-TG (thioguanine)] utilizing a mouse embryonic stem cells that express RAD51^K133A. We used a knockout-knockin strategy that introduces RAD51^K133A adjacent to the mouse RAD51 promoter while restoring miniHPRT, a positive/negative selection cassette: select for expression in HAT (hypoxanthine, aminopterin, thymidine) and select against expression in 6-TG. We screen for LOH of miniHPRT by selecting in 6-TG. Using this assay, we can detect a broad range of mutations. RAD51 is a recombinase that is essential for DNA double strand break repair and for protecting the nascent strand during replication. The K133A mutation is in the highly conserved Walker A motif and it causes a defect in ATP binding that disables the ability of RAD51 to induce topological changes in duplex DNA in an ATP-dependent manner.\nFor this assay, mutant mouse embryonic stem cells expressing RAD51^K133A were passaged two times while being selected in HAT to remove any cells that spontaneously deleted miniHPRT. Then LDA and HAT were applied to these cells for 2 days. […] Cells were then seeded onto new plates in 6-TG and colonies were counted 8 days later. […]"}, "[12]": {"tested_on": "telomere", "conditions": "individuals with telomere maintenance disorders; cited from earlier work"}}, "note": "“Also recorded” adds a separate entry of the source.", "data": [{"compound": "arsenic trioxide", "values": [{"measurement": "arsenic trioxide related toxicity", "setting": "[1]; patients, first stage, arsenic trioxide intravenously", "value": "None of these patients experienced any arsenic trioxide related toxicity"}]}, {"compound": "O[As](O)O", "note": "[arsenite]", "values": [{"measurement": "concentration resulting in induced proliferation with enhanced NF-κB and AP-1 activity", "setting": "[2]; 24 hr", "value": "≤ 5", "unit": "µM"}, {"measurement": "concentration with statistically significant decrease of cell viability", "setting": "[2]", "value": "≥ 10", "unit": "µM"}]}, {"compound": "[AsH3]", "note": "[arsenic]", "values": [{"measurement": "telomerase activity (TRAP)", "setting": "[3]", "value": "no obvious difference in telomerase activity"}, {"measurement": "arsenic-induced malignancy", "setting": "[4]", "value": "not observed any arsenic-induced malignancy"}]}, {"compound": "arsenic trioxide [LDA]", "values": [{"measurement": "LDA protection of control and msh2−/− cells from γ radiation (survival fraction)", "setting": "[5]; 100 nM Na arsenite 24 hours before γ radiation", "value": "protects both control and msh2^−/− cells from γ radiation"}, {"measurement": "LDA-mediated protection in p53−/− cells versus WT (survival fraction)", "setting": "[5]; 100 nM Na arsenite, γ radiation, differences small", "value": "p53 appears to assist in LDA-mediated protection"}, {"measurement": "bone marrow cell loss (loss of cellularity), H&E staining", "setting": "[6]; LDA pretreatment (drinking water 1 mg/L arsenic trioxide, three days) before 200 μCi Y-90 ibritumomab tiuxetan via tail vein", "value": "protected; also recorded: significantly reduced"}, {"measurement": "apoptosis, TUNEL positive cells in bone marrow", "setting": "[6]; LDA pretreatment before 200 μCi Y-90 ibritumomab tiuxetan", "value": "protected"}, {"measurement": "DNA DSBs, γ-H2AX positive cells in bone marrow", "setting": "[6]; LDA pretreatment before 200 μCi Y-90 ibritumomab tiuxetan, 6 hours to 1 week after treatment", "value": "protected; also recorded: considerably diminished"}, {"measurement": "glycolysis", "setting": "[7]", "value": "marked induction of glycolysis"}, {"measurement": "p53 and NF-kB response", "setting": "[7]", "value": "induces concerted p53 suppression and NF-kB activation"}, {"measurement": "mean ANC, WBC and Hgb, p53 suppressed group relative to activated group", "setting": "[1]; 26 patients, LDA 0.005 mg/kg for 3 days before myelosuppressive chemotherapy cycles", "value": "statistically significantly higher; also recorded: better blood counts"}, {"measurement": "growth of the implanted tumors (tumor volume)", "setting": "[8]; LDA pretreatment alone", "value": "did not have any detectable effect"}, {"measurement": "effect of LDA pretreatment on Y-90-induced tumor growth suppression", "setting": "[8]; LDA pretreatment followed by Y-90 ibritumomab tiuxetan", "value": "without compromising tumor response; also recorded: no effect"}, {"measurement": "telomere length after IR", "setting": "[9]", "value": "maintenance of telomere length; also recorded: helps prevent shortening of telomere length"}, {"measurement": "telomere length of leukemic cells", "setting": "[10]", "value": "does not make any difference"}]}, {"compound": "O=[As]O", "note": "[sodium arsenite]", "values": [{"measurement": "spontaneous deletion of miniHPRT (percentage of 6-TG-resistant cells)", "setting": "[11]; 5 nM sodium arsenite", "value": "reduced this deletion"}, {"measurement": "spontaneous deletion of miniHPRT (percentage of 6-TG-resistant cells)", "setting": "[11]; 100 nM sodium arsenite", "value": "reduced this deletion"}]}, {"compound": "C#C[C@]1(O)CC[C@H]2[C@@H]3CCC4=Cc5oncc5C[C@]4(C)[C@H]3CC[C@@]21C", "note": "[danazol]", "values": [{"measurement": "telomere attrition", "setting": "[12]", "value": "significantly reduce telomere attrition"}]}]}
